{
  "source": "patent US9133204B2",
  "about": "“5-membered heterocyclic amides and related compounds” (H. Lundbeck A/S, priority 2007, dated 2015)",
  "target": "T1, P2X7 receptor (Homo sapiens, UniProt Q99572)",
  "T1 construct": "host or cells: SH-SY5Y",
  "T1 sequence (Q99572 1-595)": "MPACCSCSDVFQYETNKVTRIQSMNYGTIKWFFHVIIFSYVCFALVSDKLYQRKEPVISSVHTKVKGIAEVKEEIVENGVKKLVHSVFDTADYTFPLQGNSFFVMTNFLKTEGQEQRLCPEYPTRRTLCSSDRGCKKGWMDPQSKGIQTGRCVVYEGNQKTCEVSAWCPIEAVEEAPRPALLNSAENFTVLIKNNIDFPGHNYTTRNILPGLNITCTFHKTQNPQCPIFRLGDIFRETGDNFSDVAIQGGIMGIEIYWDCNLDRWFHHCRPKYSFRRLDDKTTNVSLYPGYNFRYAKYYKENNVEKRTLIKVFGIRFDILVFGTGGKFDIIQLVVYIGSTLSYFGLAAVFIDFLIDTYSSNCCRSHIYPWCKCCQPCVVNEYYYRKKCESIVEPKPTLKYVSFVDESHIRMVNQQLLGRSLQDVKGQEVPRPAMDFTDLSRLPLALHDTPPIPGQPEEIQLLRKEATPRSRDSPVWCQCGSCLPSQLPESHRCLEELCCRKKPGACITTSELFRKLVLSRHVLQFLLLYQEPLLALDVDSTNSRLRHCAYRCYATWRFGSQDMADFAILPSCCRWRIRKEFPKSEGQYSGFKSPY",
  "assay": "High throughput P2X7 calcium mobilization assay (Example 4A)",
  "type": "cell-based",
  "details": "SH-SY5Y cells; 50% decrease in fluorescence response of cells exposed to 80 μM BzATP; Table I",
  "outline": "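SH-SY5Y cells loaded with 2.3 μM Fluo-4 AM for 1 h at 37 °C, then preincubated 1 h at room temperature with test compound (final 1–2500 nM) in low-sodium sucrose buffer, pH 7.4. Antagonism measured against 80 μM BzATP (about EC50) as peak FLIPR calcium fluorescence over 2 min, corrected by no-agonist background.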",
  "data": [
    {"compound": "Cc1cnc(-n2cc(C(=O)NCC(CC(C)C)c3ccc(C(F)(F)F)cc3)c(C(F)(F)F)n2)nc1N", "note": "(stereo not drawn) [Compound 171, 1-(4-amino-5-methylpyrimidin-2-yl)-N-{4-methyl-2-[4-(trifluoromethyl)phenyl]pentyl}-3-(trifluoromethyl)-1H-pyrazole-4-carboxamide]", "values": [
      {"measurement": "IC50", "value": "≤ 2000", "unit": "nM"}
    ]},
    {"compound": "Cc1cnc(-n2cc(C(=O)NCC3(c4ccc(C(F)(F)F)cc4)CCCCC3)c(C(F)(F)F)n2)nc1N", "note": "[Compound 172, 1-(4-amino-5-methylpyrimidin-2-yl)-3-(trifluoromethyl)-N-({1-[4-(trifluoromethyl)phenyl]cyclohexyl}methyl)-1H-pyrazole-4-carboxamide]", "values": [
      {"measurement": "IC50", "value": "≤ 2000", "unit": "nM"}
    ]},
    {"compound": "Cc1nn(-c2nccc(N)n2)cc1C(=O)NCC(CC(C)C)c1ccc(C(F)(F)F)cc1", "note": "(stereo not drawn) [Compound 173, 1-(4-aminopyrimidin-2-yl)-3-methyl-N-{4-methyl-2-[4-(trifluoromethyl)phenyl]pentyl}-1H-pyrazole-4-carboxamide]", "values": [
      {"measurement": "IC50", "value": "≤ 2000", "unit": "nM"}
    ]},
    {"compound": "Cc1nn(-c2cnccn2)cc1C(=O)NCC(CC(C)C)c1ccc(C(F)(F)F)cc1", "note": "(stereo not drawn) [Compound 174, 3-methyl-N-{4-methyl-2-[4-(trifluoromethyl)phenyl]pentyl}-1-pyrazin-2-yl-1H-pyrazole-4-carboxamide]", "values": [
      {"measurement": "IC50", "value": "≤ 2000", "unit": "nM"}
    ]},
    {"compound": "Cc1nn(-c2nccc(N)n2)cc1C(=O)NCC1(c2ccc(C(F)(F)F)cc2)CCCCC1", "note": "[Compound 175, 1-(4-aminopyrimidin-2-yl)-3-methyl-N-({1-[4-(trifluoromethyl)phenyl]cyclohexyl]methyl)-1H-pyrazole-4-carboxamide]", "values": [
      {"measurement": "IC50", "value": "≤ 2000", "unit": "nM"}
    ]},
    {"compound": "Cc1cnc(-n2cc(C(=O)NCC(CC(C)C)c3ccc(C(F)(F)F)cc3)c(C(C)(C)C)n2)nc1N", "note": "(stereo not drawn) [Compound 176, 1-(4-amino-5-methylpyrimidin-2-yl)-3-tert-butyl-N-{4-methyl-2-[4-(trifluoromethyl)phenyl]pentyl}-1H-pyrazole-4-carboxamide]", "values": [
      {"measurement": "IC50", "value": "≤ 2000", "unit": "nM"}
    ]},
    {"compound": "Cc1cnc(-n2cc(C(=O)NCC3(c4ccc(C(F)(F)F)cc4)CCCCC3)c(C(C)(C)C)n2)nc1N", "note": "[Compound 177, 1-(4-amino-5-methylpyrimidin-2-yl)-3-tert-butyl-N-({1-[4-(trifluoromethyl)phenyl]cyclohexyl]methyl)-1H-pyrazole-4-carboxamide]", "values": [
      {"measurement": "IC50", "value": "≤ 2000", "unit": "nM"}
    ]},
    {"compound": "Cc1nn(-c2ncccn2)cc1C(=O)NCC(CC(C)C)c1ccc(C(F)(F)F)cc1", "note": "(stereo not drawn) [Compound 178, 3-methyl-N-{4-methyl-2-[4-(trifluoromethyl)phenyl]pentyl}-1-pyrimidin-2-yl-1H-pyrazole-4-carboxamide]", "values": [
      {"measurement": "IC50", "value": "≤ 2000", "unit": "nM"}
    ]},
    {"compound": "Cc1nn(-c2nccnc2N)cc1C(=O)NCC(CC(C)C)c1ccc(C(F)(F)F)cc1", "note": "(stereo not drawn) [Compound 179, 1-(3-aminopyrazin-2-yl)-3-methyl-N-{4-methyl-2-[4-(trifluoromethyl)phenyl]pentyl}-1H-pyrazole-4-carboxamide]", "values": [
      {"measurement": "IC50", "value": "≤ 2000", "unit": "nM"}
    ]},
    {"compound": "Cc1nn(-c2cncc(N)n2)cc1C(=O)NCC(CC(C)C)c1ccc(C(F)(F)F)cc1", "note": "(stereo not drawn) [Compound 180, 1-(6-aminopyrazin-2-yl)-3-methyl-N-{4-methyl-2-[4-(trifluoromethyl)phenyl]pentyl}-1H-pyrazole-4-carboxamide]", "values": [
      {"measurement": "IC50", "value": "≤ 2000", "unit": "nM"}
    ]},
    {"compound": "Cc1nn(-c2ncccn2)cc1C(=O)NCC1(c2ccc(C(F)(F)F)cc2)CCCCC1", "note": "[Compound 181, 3-methyl-1-pyrimidin-2-yl-N-({1-[4-(trifluoromethyl)phenyl]cyclohexyl]methyl)-1H-pyrazole-4-carboxamide]", "values": [
      {"measurement": "IC50", "value": "≤ 2000", "unit": "nM"}
    ]},
    {"compound": "Cc1nn(-c2nccnc2N)cc1C(=O)NCC1(c2ccc(C(F)(F)F)cc2)CCCCC1", "note": "[Compound 182, 1-(3-aminopyrazin-2-yl)-3-methyl-N-({1-[4-(trifluoromethyl)phenyl]cyclohexyl}methyl)-1H-pyrazole-4-carboxamide]", "values": [
      {"measurement": "IC50", "value": "≤ 2000", "unit": "nM"}
    ]},
    {"compound": "Cc1nn(-c2cncc(N)n2)cc1C(=O)NCC1(c2ccc(C(F)(F)F)cc2)CCCCC1", "note": "[Compound 183, 1-(6-aminopyrazin-2-yl)-3-methyl-N-({1-[4-(trifluoromethyl)phenyl]cyclohexyl}methyl)-1H-pyrazole-4-carboxamide]", "values": [
      {"measurement": "IC50", "value": "≤ 2000", "unit": "nM"}
    ]},
    {"compound": "Cc1nn(-c2cnccn2)cc1C(=O)NCC1(c2ccc(C(F)(F)F)cc2)CCCCC1", "note": "[Compound 184, 3-methyl-1-pyrazin-2-yl-N-({1-[4-(trifluoromethyl)phenyl]cyclohexyl}methyl)-1H-pyrazole-4-carboxamide]", "values": [
      {"measurement": "IC50", "value": "≤ 2000", "unit": "nM"}
    ]},
    {"compound": "COc1ccnc(-n2cc(C(=O)NCC3(c4cccnc4)CCCCC3)c(C(F)(F)F)n2)n1", "note": "[Compound 185, 1-(4-methoxypyrimidin-2-yl)-N-[(1-pyridin-3-ylcyclohexyl)methyl]-3-(trifluoromethyl)-1H-pyrazole-4-carboxamide]", "values": [
      {"measurement": "IC50", "value": "≤ 2000", "unit": "nM"}
    ]},
    {"compound": "Cc1nccnc1-n1cc(C(=O)NCC2(c3cccnc3)CCCCC2)c(C(F)(F)F)n1", "note": "[Compound 186, 1-(3-methylpyrazin-2-yl)-N-[(1-pyridin-3-ylcyclohexyl)methyl]-3-(trifluoromethyl)-1H-pyrazole-4-carboxamide]", "values": [
      {"measurement": "IC50", "value": "≤ 2000", "unit": "nM"}
    ]},
    {"compound": "Cc1cncc(-n2cc(C(=O)NCC3(c4cccnc4)CCCCC3)c(C(F)(F)F)n2)n1", "note": "[Compound 187, 1-(6-methylpyrazin-2-yl)-N-[(1-pyridin-3-ylcyclohexyl)methyl]-3-(trifluoromethyl)-1H-pyrazole-4-carboxamide]", "values": [
      {"measurement": "IC50", "value": "≤ 2000", "unit": "nM"}
    ]},
    {"compound": "CCc1nccnc1-n1cc(C(=O)NCC2(c3cccnc3)CCCCC2)c(C(F)(F)F)n1", "note": "[Compound 188, 1-(3-ethylpyrazin-2-yl)-N-[(1-pyridin-3-ylcyclohexyl)methyl]-3-(trifluoromethyl)-1H-pyrazole-4-carboxamide]", "values": [
      {"measurement": "IC50", "value": "≤ 2000", "unit": "nM"}
    ]},
    {"compound": "Cc1cnc(-n2cc(C(=O)NCC3(c4ccc(F)cc4)CCCCC3)c(C(F)(F)F)n2)nc1N", "note": "[Compound 190, 1-(4-amino-5-methylpyrimidin-2-yl)-N-{[1-(4-fluorophenyl)cyclohexyl]methyl}-3-(trifluoromethyl)-1H-pyrazole-4-carboxamide]", "values": [
      {"measurement": "IC50", "value": "≤ 2000", "unit": "nM"}
    ]},
    {"compound": "COc1cnc(-n2cc(C(=O)NCC3(c4cccnc4)CCCCC3)c(C(F)(F)F)n2)nc1", "note": "[Compound 191, 1-(5-methoxypyrimidin-2-yl)-N-[(1-pyridin-3-ylcyclohexyl)methyl]-3-(trifluoromethyl)-1H-pyrazole-4-carboxamide]", "values": [
      {"measurement": "IC50", "value": "≤ 2000", "unit": "nM"}
    ]},
    {"compound": "O=C(NCC1(c2cccnc2)CCCCC1)c1cn(-c2ncc(Cl)cn2)nc1C(F)(F)F", "note": "[Compound 192, 1-(5-chloropyrimidin-2-yl)-N-[(1-pyridin-3-ylcyclohexyl)methyl]-3-(trifluoromethyl)-1H-pyrazole-4-carboxamide]", "values": [
      {"measurement": "IC50", "value": "≤ 2000", "unit": "nM"}
    ]},
    {"compound": "O=C(NCCC12CC3CC(CC(C3)C1)C2)c1cn(-c2ncccn2)nc1C(F)(F)F", "note": "[Compound 193, N-(2-adamantan-1-ylethyl)-1-pyrimidin-2-yl-3-(trifluoromethyl)-1H-pyrazole-4-carboxamide]", "values": [
      {"measurement": "IC50", "value": "≤ 2000", "unit": "nM"}
    ]},
    {"compound": "CC1(C)C2CC[C@@H](CNC(=O)c3cn(-c4ncccn4)nc3C(F)(F)F)C1C2", "note": "(stereo partly drawn) [Compound 194, N-{[(2R)-6,6-dimethylbicyclo[3.1.1]hept-2-yl]methyl}-1-pyrimidin-2-yl-3-(trifluoromethyl)-1H-pyrazole-4-carboxamide]", "values": [
      {"measurement": "IC50", "value": "≤ 2000", "unit": "nM"}
    ]},
    {"compound": "O=C(NCC1(c2ccc(Cl)cc2)CCCCC1)c1cn(-c2ncccn2)nc1C(F)(F)F", "note": "[Compound 195, N-{[1-(4-chlorophenyl)cyclohexyl]methyl}-1-pyrimidin-2-yl-3-(trifluoromethyl)-1H-pyrazole-4-carboxamide]", "values": [
      {"measurement": "IC50", "value": "≤ 2000", "unit": "nM"}
    ]},
    {"compound": "O=C(NCC1(c2ccc(C(F)(F)F)cc2)CCCCC1)c1cn(-c2ncccn2)nc1C(F)(F)F", "note": "[Compound 196, 1-pyrimidin-2-yl-3-(trifluoromethyl)-N-({1-[4-(trifluoromethyl)phenyl]cyclohexyl]methyl)-1H-pyrazole-4-carboxamide]", "values": [
      {"measurement": "IC50", "value": "≤ 2000", "unit": "nM"}
    ]},
    {"compound": "O=C(NCC1(c2ccc(Cl)cc2)CCOCC1)c1cn(-c2ncccn2)nc1C(F)(F)F", "note": "[Compound 197, N-{[4-(4-chlorophenyl)tetrahydro-2H-pyran-4-yl]methyl}-1-pyrimidin-2-yl-3-(trifluoromethyl)-1H-pyrazole-4-carboxamide]", "values": [
      {"measurement": "IC50", "value": "≤ 2000", "unit": "nM"}
    ]},
    {"compound": "O=C(NCC1(N2CCOCC2)CCCCC1)c1cn(-c2ncccn2)nc1C(F)(F)F", "note": "[Compound 198, N-[(1-morpholin-4-ylcyclohexyl)methyl]-1-pyrimidin-2-yl-3-(trifluoromethyl)-1H-pyrazole-4-carboxamide]", "values": [
      {"measurement": "IC50", "value": "≤ 2000", "unit": "nM"}
    ]},
    {"compound": "COc1ccc(C2(CNC(=O)c3cn(-c4ncccn4)nc3C(F)(F)F)CCCCC2)cc1", "note": "[Compound 199, N-{[1-(4-methoxyphenyl)cyclohexyl]methyl}-1-pyrimidin-2-yl-3-(trifluoromethyl)-1H-pyrazole-4-carboxamide]", "values": [
      {"measurement": "IC50", "value": "≤ 2000", "unit": "nM"}
    ]},
    {"compound": "CC(C)CC(CNC(=O)c1cn(-c2ncccn2)nc1C(F)(F)F)c1ccc(C(F)(F)F)cc1", "note": "(stereo not drawn) [Compound 200, N-{4-methyl-2-[4-(trifluoromethyl)phenyl]pentyl}-1-pyrimidin-2-yl-3-(trifluoromethyl)-1H-pyrazole-4-carboxamide]", "values": [
      {"measurement": "IC50", "value": "≤ 2000", "unit": "nM"}
    ]},
    {"compound": "CCCC(CNC(=O)c1cn(-c2ncccn2)nc1C(F)(F)F)c1ccc(Cl)cc1", "note": "(stereo not drawn) [Compound 201, N-[2-(4-chlorophenyl)pentyl]-1-pyrimidin-2-yl-3-(trifluoromethyl)-1H-pyrazole-4-carboxamide]", "values": [
      {"measurement": "IC50", "value": "≤ 2000", "unit": "nM"}
    ]}
  ]
}
